Assay results taken from US6706663B2, “Herbicidal 3-heterocyclic substituted benzisothiazole and benzisoxazole compounds” (Wyeth, priority 2000, dated 2004).

What was measured:
[1] = system: ABUTH (Abutilon theophrasti); assay: Postemergence herbicidal evaluation; format: in vivo, Medic.
Method in brief: (§1)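 Seedlings grown for about two weeks were sprayed postemergence and then kept under standard greenhouse care. Injury was rated visually 4–5 weeks after treatment on a 0–9 scale against untreated controls, and ratings from repeat tests were averaged.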

GALAP (Galium aparine) [2] = assay: Postemergence herbicidal evaluation; format: in vivo
Method in brief: as §1

[3] = system: IPOHE (Ipomoea hederacea); assay: Postemergence herbicidal evaluation; format: in vivo, (L.) Jacq.
Method in brief: as §1

SETVI (Setaria viridis) [4] = assay: Postemergence herbicidal evaluation; format: in vivo, (L.) Beau
Method in brief: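 Ratings use a 0-9 visual scale covering stand, vigor, malformation, size, chlorosis and appearance versus a control, scored 4-5 weeks post-spray. Roughly two-week-old seedlings received about 0.0040-1.000 kg/ha active, applied in 50/50 acetone/water with 0.5% TWEEN 20. Multiple tests per compound were averaged.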

[5] = system: GLXMAW (Soybean, Williams); assay: Postemergence herbicidal evaluation; format: in vivo, Glycine max, (L.) Merr. cv Williams
Method in brief: as §1

[6] = system: TRZAWR (Wheat, Winter, cv Riband); assay: Postemergence herbicidal evaluation; format: in vivo, Triticum aestivum
Method in brief: as §1

[7] = system: ABUTH (Abutilon theophrasti); assay: Preemergence herbicidal evaluation; format: in vivo, Medic.; settings: preemergence, rated 4-5 weeks after treatment
[8] = system: AMBEL (Ambrosia artemisifolia); assay: Preemergence herbicidal evaluation; format: in vivo, L.; settings: preemergence, rated 4-5 weeks after treatment
Method in brief: (§2)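 Each species was sown separately in potting soil over roughly one inch of soil, and the surface sprayed with compound dissolved in aqueous acetone. Assessment used a 0–9 visual scale against a control after four to five weeks.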

[9] = system: CASOB (Cassia obtusifolia); assay: Preemergence herbicidal evaluation; format: in vivo, L.; settings: preemergence, rated 4-5 weeks after treatment
Method in brief: as §2

[10] = system: CHEAL (Chenopodium album); assay: Preemergence herbicidal evaluation; format: in vivo, L.; settings: preemergence, rated 4-5 weeks after treatment
Method in brief: as §2

GALAP (Galium aparine) [11] = assay: Preemergence herbicidal evaluation; format: in vivo; settings: preemergence, rated 4-5 weeks after treatment
Method in brief: as §2

[12] = system: ECHCG (Echinochloa crus-galli); assay: Preemergence herbicidal evaluation; format: in vivo, (L.) Beau; settings: preemergence, rated 4-5 weeks after treatment
Method in brief: as §2

SETVI (Setaria viridis) [13] = assay: Preemergence herbicidal evaluation; format: in vivo, (L.) Beau; settings: preemergence, rated 4-5 weeks after treatment
Method in brief: as §2

ZEAMX (Corn, Field) = assay: Preemergence herbicidal evaluation; format: in vivo, Zea mays, L.; settings: preemergence, rated 4-5 weeks after treatment
[14] = system: CYPSE (Cyperus serotinus); assay: Flooded paddy, preemergence weed control; format: in vivo, Rottb.; settings: rated 3-4 weeks after treatment, 0-9 rating scale
Method in brief: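 Herbicidal effect was scored visually on a 0–9 scale against an untreated control 3–4 weeks after treatment. Compounds were applied preemergence as 50/50 v/v aqueous/acetone mixtures into flood water (1.5–3 cm deep over silt loam), at roughly 0.0080 to 0.1250 kg/ha active ingredient.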

[15] = system: MOOVA (Monochoria vaginalis); assay: Flooded paddy, preemergence weed control; format: in vivo, Presl.; settings: rated 3-4 weeks after treatment, 0-9 rating scale
Method in brief: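 Seeds or propagules were planted in the top 0.5 cm of silt loam soil and kept flooded 1.5–3 cm above the surface throughout, then held in the greenhouse. Injury was rated visually on a 0–9 scale against untreated controls, covering stand, vigor, malformation, size and chlorosis.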

ORYSAT (Rice, Tebonnet) = assay: Flooded paddy, post-transplant rice tolerance; format: in vivo, Oryza sativa, (L.) Tebonnet; settings: flooded paddy, post-transplant rice, rated 3-4 weeks after treatment, 0-9 rating scale
Method in brief: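 Steps: transplant two ten-day-old seedlings into silt loam; flood to 1.5-3 cm above soil; apply herbicide post-transplant; maintain water on greenhouse benches; rate stand, vigor, malformation, size and chlorosis on a 0-9 visual scale versus control.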

CCOC(=O)C1CS[C@H](c2nsc3ccc(-n4c(=O)cc(C(F)(F)F)n(C)c4=O)cc23)N1 (stereo partly drawn) [Compound 2, ethyl (R)-2-[5-[3,6-dihydro-3-methyl-2,6-dioxo-4-(trifluoromethyl)-1(2H)-pyrimidinyl]-1,2-benzisothiazol-3-yl]-4-thiazolidinecarboxylate]
Postemergence herbicidal rating, ABUTH ([1]; rate 0.0320 kg/ha): 9.0
Postemergence herbicidal rating, ABUTH ([1]; rate 0.0620 kg/ha): 9.0
Postemergence herbicidal rating, GALAP (GALAP (Galium aparine) [2]; rate 0.0320 kg/ha): 5.0
Postemergence herbicidal rating, GALAP (GALAP (Galium aparine) [2]; rate 0.0620 kg/ha): 6.0
Postemergence herbicidal rating, IPOHE ([3]; rate 0.0320 kg/ha): 9.0
Postemergence herbicidal rating, IPOHE ([3]; rate 0.0620 kg/ha): 9.0
Postemergence herbicidal rating, SETVI (SETVI (Setaria viridis) [4]; rate 0.0320 kg/ha): 6.0
Postemergence herbicidal rating, SETVI (SETVI (Setaria viridis) [4]; rate 0.0620 kg/ha): 7.0
Postemergence herbicidal rating, GLXMAW ([5]; rate 0.0320 kg/ha): 7.0
Postemergence herbicidal rating, GLXMAW ([5]; rate 0.0620 kg/ha): 7.5
Postemergence herbicidal rating, TRZAWR ([6]; rate 0.0320 kg/ha): 5.0
Postemergence herbicidal rating, TRZAWR ([6]; rate 0.0620 kg/ha): 6.5
ABUTH preemergence herbicidal rating ([7]; Rate 0.0620 kg/ha): 9.0
ABUTH preemergence herbicidal rating ([7]; Rate 0.1250 kg/ha): 9.0
ABUTH preemergence herbicidal rating ([7]; Rate 0.2500 kg/ha): 9.0
AMBEL preemergence herbicidal rating ([8]; Rate 0.0620 kg/ha): 7.0
AMBEL preemergence herbicidal rating ([8]; Rate 0.1250 kg/ha): 8.0
AMBEL preemergence herbicidal rating ([8]; Rate 0.2500 kg/ha): 9.0
CASOB preemergence herbicidal rating ([9]; Rate 0.0620 kg/ha): 5.0
CASOB preemergence herbicidal rating ([9]; Rate 0.1250 kg/ha): 7.5
CASOB preemergence herbicidal rating ([9]; Rate 0.2500 kg/ha): 7.0
CHEAL preemergence herbicidal rating ([10]; Rate 0.0620 kg/ha): 9.0
CHEAL preemergence herbicidal rating ([10]; Rate 0.1250 kg/ha): 9.0
CHEAL preemergence herbicidal rating ([10]; Rate 0.2500 kg/ha): 9.0
GALAP preemergence herbicidal rating (GALAP (Galium aparine) [11]; Rate 0.0620 kg/ha): 5.0
GALAP preemergence herbicidal rating (GALAP (Galium aparine) [11]; Rate 0.1250 kg/ha): 9.0
GALAP preemergence herbicidal rating (GALAP (Galium aparine) [11]; Rate 0.2500 kg/ha): 9.0
ECHCG preemergence herbicidal rating ([12]; Rate 0.0620 kg/ha): 2.5
ECHCG preemergence herbicidal rating ([12]; Rate 0.1250 kg/ha): 6.0
ECHCG preemergence herbicidal rating ([12]; Rate 0.2500 kg/ha): 8.0
SETVI preemergence herbicidal rating (SETVI (Setaria viridis) [13]; Rate 0.0620 kg/ha): 8.0
SETVI preemergence herbicidal rating (SETVI (Setaria viridis) [13]; Rate 0.1250 kg/ha): 8.0
SETVI preemergence herbicidal rating (SETVI (Setaria viridis) [13]; Rate 0.2500 kg/ha): 9.0
ZEAMX preemergence herbicidal rating (ZEAMX (Corn, Field); Rate 0.0620 kg/ha): 3.5
ZEAMX preemergence herbicidal rating (ZEAMX (Corn, Field); Rate 0.1250 kg/ha): 6.5
ZEAMX preemergence herbicidal rating (ZEAMX (Corn, Field); Rate 0.2500 kg/ha): 7.5
herbicidal rating, CYPSE ([14]; rate 0.0320 kg/ha): 0.0
herbicidal rating, CYPSE ([14]; rate 0.1250 kg/ha): 0.0
herbicidal rating, MOOVA ([15]; rate 0.0320 kg/ha): 6.0
herbicidal rating, MOOVA ([15]; rate 0.1250 kg/ha): 9.0
herbicidal rating, ORYSAT (rice tolerance) (ORYSAT (Rice, Tebonnet); rate 0.0320 kg/ha): 1.0
herbicidal rating, ORYSAT (rice tolerance) (ORYSAT (Rice, Tebonnet); rate 0.1250 kg/ha): 4.0

Cn1c(C(F)(F)F)cc(=O)n(-c2ccc3snc(-c4cccs4)c3c2)c1=O [Compound 3, 1-methyl-3-[3-(2-thienyl)-1,2-benzisothiazol-5-yl]-6-(trifluoromethyl)uracil]
Postemergence herbicidal rating, ABUTH ([1]; rate 0.0320 kg/ha): 9.0
Postemergence herbicidal rating, ABUTH ([1]; rate 0.0620 kg/ha): 9.0
Postemergence herbicidal rating, ABUTH ([1]; rate 0.1250 kg/ha): 9.0
Postemergence herbicidal rating, GALAP (GALAP (Galium aparine) [2]; rate 0.0320 kg/ha): 5.0
Postemergence herbicidal rating, GALAP (GALAP (Galium aparine) [2]; rate 0.0620 kg/ha): 4.0
Postemergence herbicidal rating, GALAP (GALAP (Galium aparine) [2]; rate 0.1250 kg/ha): 6.0
Postemergence herbicidal rating, IPOHE ([3]; rate 0.0320 kg/ha): 9.0
Postemergence herbicidal rating, IPOHE ([3]; rate 0.0620 kg/ha): 9.0
Postemergence herbicidal rating, IPOHE ([3]; rate 0.1250 kg/ha): 9.0
Postemergence herbicidal rating, SETVI (SETVI (Setaria viridis) [4]; rate 0.0320 kg/ha): 3.0
Postemergence herbicidal rating, SETVI (SETVI (Setaria viridis) [4]; rate 0.0620 kg/ha): 9.0
Postemergence herbicidal rating, SETVI (SETVI (Setaria viridis) [4]; rate 0.1250 kg/ha): 9.0
Postemergence herbicidal rating, GLXMAW ([5]; rate 0.0320 kg/ha): 6.0
Postemergence herbicidal rating, GLXMAW ([5]; rate 0.0620 kg/ha): 6.5
Postemergence herbicidal rating, GLXMAW ([5]; rate 0.1250 kg/ha): 8.5
Postemergence herbicidal rating, TRZAWR ([6]; rate 0.0320 kg/ha): 2.5
Postemergence herbicidal rating, TRZAWR ([6]; rate 0.0620 kg/ha): 4.5
Postemergence herbicidal rating, TRZAWR ([6]; rate 0.1250 kg/ha): 5.0
ABUTH preemergence herbicidal rating ([7]; Rate 0.0620 kg/ha): 8.5
ABUTH preemergence herbicidal rating ([7]; Rate 0.1250 kg/ha): 9.0
ABUTH preemergence herbicidal rating ([7]; Rate 0.2500 kg/ha): 9.0
AMBEL preemergence herbicidal rating ([8]; Rate 0.0620 kg/ha): 8.0
AMBEL preemergence herbicidal rating ([8]; Rate 0.1250 kg/ha): 9.0
AMBEL preemergence herbicidal rating ([8]; Rate 0.2500 kg/ha): 9.0
CASOB preemergence herbicidal rating ([9]; Rate 0.0620 kg/ha): 4.0
CASOB preemergence herbicidal rating ([9]; Rate 0.1250 kg/ha): 4.5
CASOB preemergence herbicidal rating ([9]; Rate 0.2500 kg/ha): 5.5
CHEAL preemergence herbicidal rating ([10]; Rate 0.0620 kg/ha): 9.0
CHEAL preemergence herbicidal rating ([10]; Rate 0.1250 kg/ha): 9.0
CHEAL preemergence herbicidal rating ([10]; Rate 0.2500 kg/ha): 9.0
GALAP preemergence herbicidal rating (GALAP (Galium aparine) [11]; Rate 0.0620 kg/ha): 9.0
GALAP preemergence herbicidal rating (GALAP (Galium aparine) [11]; Rate 0.1250 kg/ha): 9.0
GALAP preemergence herbicidal rating (GALAP (Galium aparine) [11]; Rate 0.2500 kg/ha): 9.0
ECHCG preemergence herbicidal rating ([12]; Rate 0.0620 kg/ha): 7.5
ECHCG preemergence herbicidal rating ([12]; Rate 0.1250 kg/ha): 7.0
ECHCG preemergence herbicidal rating ([12]; Rate 0.2500 kg/ha): 9.0
SETVI preemergence herbicidal rating (SETVI (Setaria viridis) [13]; Rate 0.0620 kg/ha): 9.0
SETVI preemergence herbicidal rating (SETVI (Setaria viridis) [13]; Rate 0.1250 kg/ha): 8.5
SETVI preemergence herbicidal rating (SETVI (Setaria viridis) [13]; Rate 0.2500 kg/ha): 9.0
ZEAMX preemergence herbicidal rating (ZEAMX (Corn, Field); Rate 0.0620 kg/ha): 6.5
ZEAMX preemergence herbicidal rating (ZEAMX (Corn, Field); Rate 0.1250 kg/ha): 6.5
ZEAMX preemergence herbicidal rating (ZEAMX (Corn, Field); Rate 0.2500 kg/ha): 7.0
herbicidal rating, CYPSE ([14]; rate 0.0080 kg/ha): 0.0
herbicidal rating, CYPSE ([14]; rate 0.0320 kg/ha): 6.5
herbicidal rating, CYPSE ([14]; rate 0.1250 kg/ha): 6.5
herbicidal rating, MOOVA ([15]; rate 0.0080 kg/ha): 9.0
herbicidal rating, MOOVA ([15]; rate 0.0320 kg/ha): 9.0
herbicidal rating, MOOVA ([15]; rate 0.1250 kg/ha): 9.0
herbicidal rating, ORYSAT (rice tolerance) (ORYSAT (Rice, Tebonnet); rate 0.0080 kg/ha): 3.0
herbicidal rating, ORYSAT (rice tolerance) (ORYSAT (Rice, Tebonnet); rate 0.0320 kg/ha): 3.5
herbicidal rating, ORYSAT (rice tolerance) (ORYSAT (Rice, Tebonnet); rate 0.1250 kg/ha): 5.5
